According to PubChem BioAssay AID256 (DTP/NCI, 2004):
Values joined by “and” are separate entries in the source; they are usually repeats but may differ in a detail not shown here. Identical values can stand only once. Inconclusive results and toxic doses are left out. Rule for the calls: active = survival T/C of 150% or more; inactive = T/C below 125% in these data.

Test system: CD2F1 mice, L1210 leukemia ip, survival T/C
Assay: NCI In Vivo Anticancer Drug Screen. Data for tumor model L1210 Leukemia (intraperitoneal) in CD2F1 (CDF1) mice
Details: higher = longer survival
In short: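 Implant tumor; dose compound or vehicle; measure endpoint in both groups; report treated divided by control.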

Measured: T/C

CC(c1ccccc1)N1CCCOP1(=O)N(CCCl)CCCl (centres undefined)
inactive: endpoint: mean survival time, dose: 6.25 mg/kg/injection, schedule: Q01DX009 (ip), vehicle: other 103 % of control | endpoint: mean survival time, dose: 12.5 mg/kg/injection, schedule: Q01DX009 (ip), vehicle: other 103 % of control and 94 % of control | endpoint: mean survival time, dose: 25.0 mg/kg/injection, schedule: Q01DX009 (ip), vehicle: other 98 % of control and 94 % of control | endpoint: mean survival time, dose: 31.3 mg/kg/injection, schedule: Q01DX001 (ip), vehicle: other 98 % of control and 112 % of control and 103 % of control | endpoint: mean survival time, dose: 31.3 mg/kg/injection, schedule: Q01DX001 (ip), vehicle: saline + alcohol 101 % of control | endpoint: mean survival time, dose: 50.0 mg/kg/injection, schedule: Q01DX009 (ip), vehicle: other 109 % of control and 94 % of control | endpoint: mean survival time, dose: 62.5 mg/kg/injection, schedule: Q01DX001 (ip), vehicle: other 98 % of control and 100 % of control and 103 % of control | endpoint: mean survival time, dose: 62.5 mg/kg/injection, schedule: Q01DX001 (ip), vehicle: saline + alcohol 94 % of control | endpoint: mean survival time, dose: 100.0 mg/kg/injection, schedule: Q01DX009 (ip), vehicle: other 115 % of control and 96 % of control | endpoint: mean survival time, dose: 125.0 mg/kg/injection, schedule: Q01DX001 (ip), vehicle: other 113 % of control and 108 % of control and 100 % of control | endpoint: mean survival time, dose: 125.0 mg/kg/injection, schedule: Q01DX001 (ip), vehicle: saline + alcohol 97 % of control | endpoint: mean survival time, dose: 200.0 mg/kg/injection, schedule: Q01DX009 (ip), vehicle: other 100 % of control | endpoint: mean survival time, dose: 250.0 mg/kg/injection, schedule: Q01DX001 (ip), vehicle: other 107 % of control and 100 % of control and 103 % of control | endpoint: mean survival time, dose: 250.0 mg/kg/injection, schedule: Q01DX001 (ip), vehicle: saline + alcohol 97 % of control | endpoint: mean survival time, dose: 500.0 mg/kg/injection, schedule: Q01DX001 (ip), vehicle: other 100 % of control and 103 % of control | endpoint: mean survival time, dose: 500.0 mg/kg/injection, schedule: Q01DX001 (ip), vehicle: saline + alcohol 91 % of control

O=C1c2cccc3cc([N+](=O)[O-])cc(c23)C(=O)N1CCN1CCCC1
inactive: endpoint: mean survival time, dose: 1.5 mg/kg/injection, schedule: Q01DX009 (ip), vehicle: saline with Tween-80 107 % of control | endpoint: mean survival time, dose: 1.5 mg/kg/injection, schedule: Q01DX009 (ip), vehicle: saline 100 % of control | endpoint: mean survival time, dose: 3.0 mg/kg/injection, schedule: Q01DX009 (ip), vehicle: saline with Tween-80 113 % of control | endpoint: mean survival time, dose: 3.0 mg/kg/injection, schedule: Q01DX009 (ip), vehicle: saline 100 % of control | endpoint: mean survival time, dose: 6.0 mg/kg/injection, schedule: Q01DX009 (ip), vehicle: saline 113 % of control | endpoint: mean survival time, dose: 12.0 mg/kg/injection, schedule: Q01DX009 (ip), vehicle: saline 115 % of control | endpoint: mean survival time, dose: 24.0 mg/kg/injection, schedule: Q01DX009 (ip), vehicle: saline with Tween-80 91 % of control | endpoint: mean survival time, dose: 24.0 mg/kg/injection, schedule: Q01DX009 (ip), vehicle: saline 111 % of control | endpoint: median survival time, dose: 1.56 mg/kg/injection, schedule: Q01DX009 (ip), vehicle: saline with Tween-80 96 % of control | endpoint: median survival time, dose: 3.12 mg/kg/injection, schedule: Q01DX009 (ip), vehicle: saline with Tween-80 101 % of control and 107 % of control | endpoint: median survival time, dose: 6.25 mg/kg/injection, schedule: Q01DX009 (ip), vehicle: saline with Tween-80 104 % of control and 107 % of control | endpoint: median survival time, dose: 12.5 mg/kg/injection, schedule: Q01DX009 (ip), vehicle: saline with Tween-80 117 % of control and 119 % of control | endpoint: median survival time, dose: 50.0 mg/kg/injection, schedule: Q01DX009 (ip), vehicle: saline with Tween-80 86 % of control

NC(CO)(CO)CO
inactive: endpoint: mean survival time, dose: 100.0 mg/kg/injection, schedule: Q01DX009 (ip), vehicle: saline 98 % of control | endpoint: mean survival time, dose: 200.0 mg/kg/injection, schedule: Q01DX009 (ip), vehicle: saline 93 % of control | endpoint: mean survival time, dose: 400.0 mg/kg/injection, schedule: Q01DX009 (ip), vehicle: saline 100 % of control

COc1ccc(C(OCC2OC(n3cc(C)c(=O)[nH]c3=O)CC2OP(=O)(O)OCC2OC(n3cc(C)c(=O)[nH]c3=O)CC2OP(=O)(O)OCC2OC(n3cc(C)c(=O)[nH]c3=O)CC2OP(=O)(O)OCC2OC(n3cc(C)c(=O)[nH]c3=O)CC2OP(=O)(O)OCC2OC(n3ccc(N)nc3=O)C(O)C2O)(c2ccccc2)c2ccccc2)cc1 (centres undefined)
active: endpoint: median survival time, dose: 400.0 mg/kg/injection, schedule: Q01DX005 (ip), vehicle: saline 162 % of control
inactive: endpoint: median survival time, dose: 25.0 mg/kg/injection, schedule: Q01DX005 (ip), vehicle: saline 108 % of control | endpoint: median survival time, dose: 50.0 mg/kg/injection, schedule: Q01DX005 (ip), vehicle: saline 122 % of control

C1CNCCNCCNCCN1
inactive: endpoint: mean survival time, dose: 12.5 mg/kg/injection, schedule: Q01DX009 (ip), vehicle: water 100 % of control | endpoint: mean survival time, dose: 25.0 mg/kg/injection, schedule: Q01DX009 (ip), vehicle: water 100 % of control | endpoint: mean survival time, dose: 50.0 mg/kg/injection, schedule: Q01DX009 (ip), vehicle: water 96 % of control | endpoint: mean survival time, dose: 100.0 mg/kg/injection, schedule: Q01DX009 (ip), vehicle: water 94 % of control
